Measured values published in ChEMBL document CHEMBL4346739, “Design, synthesis, and evaluation of novel N-(4-phenoxybenzyl)aniline derivatives targeting acetylcholinesterase, β-amyloid aggregation and oxidative stress to treat Alzheimer's disease” (Bioorg Med Chem, 2019).
Activity calls are given as the source filed them. The rule behind the calls is not given here.

What was measured:
[1] = Octanol/water partition co-efficient, log P of compound at pH 7.4 by shake-flask method; assay type: physicochemical
Cholinesterase = Cholinesterase (Homo sapiens, UniProt P06276); test: Inhibition of human plasma BChE using butyrylthiocholine iodide as substrate preincubated for 10 mins followed by substrate addition and measured at 6 mins by Ellman's method
Acetylcholinesterase [2] = target: T1, Acetylcholinesterase (Homo sapiens, UniProt P22303); test: Inhibition of human erythrocyte AChE using acetylthiocholine iodide as substrate preincubated for 10 mins followed by substrate addition and measured for 6 mins by Ellman's method
[3] = Permeability of compound at 25 ug/ml at pH 7.4 incubated for 18 hrs by PAMPA-BBB assay
Mus musculus [4] = test: Reversal of scopolamine-induced amnesic effect in albino mouse assessed as increase in transfer latency time of acquisition trial at 5 mg/kg, po administered once daily for 7 days followed by scopolamine challenge and subsequent training session for 5 mins by passive avoidance test; assay type: functional, organism-based
Mus musculus [5] = test: Reversal of scopolamine-induced amnesic effect in albino mouse assessed as increase in transfer latency time of retention trial at 5 mg/kg, po administered once daily for 7 days followed by scopolamine challenge and subsequent training session for 5 mins by passive avoidance test; assay type: functional, organism-based
Mus musculus [6] = test: Cognitive enhancing effect in albino mouse assessed as reversal of scopolamine-induced reduction in spontaneous alteration score at 5 mg/kg, po administered once daily for 7 days followed by scopolamine challenge for 5 mins prior to test and measured on day 7 by Y-maze test; assay type: functional, organism-based
Mus musculus [7] = test: In vivo antioxidant activity in albino mouse assessed as decrease in scopolamine-induced MDA level in brain at 2.5 to 10 mg/kg, po administered once daily for 7 days followed by scopolamine challenge by TBARS assay; assay type: functional, organism-based
Mus musculus [8] = test: Reversal of scopolamine-induced amnesic effect in albino mouse assessed as increase in transfer latency time of acquisition trial at 2.5 to 10 mg/kg, po administered once daily for 7 days followed by scopolamine challenge and subsequent training session for 5 mins by passive avoidance test; assay type: functional, organism-based
[9] = Acute toxicity in Swiss albino mouse assessed as mortality by OECD 423 guideline based method; settings: in vivo
Mus musculus [10] = test: Effect on total arm entries in scopolamine-induced spatial memory impairment in albino mouse model of amnesia at 2.5 to 10 mg/kg, po administered once daily for 7 days followed by scopolamine challenge for 5 mins prior to test and measured on day 7 by Y-maze test; assay type: ADME, organism-based; settings: in vivo
Mus musculus [11] = test: In vivo antioxidant activity in albino mouse assessed as increase in scopolamine-induced SOD level in brain at 2.5 to 10 mg/kg, po administered once daily for 7 days followed by scopolamine challenge and measured for 2 mins at 30 secs interval; assay type: functional, organism-based
[12] = Acute toxicity in Swiss albino mouse assessed as convulsions by OECD 423 guideline based method; settings: in vivo
Mus musculus [13] = test: Antialzheimer activity in albino mouse assessed as reversal of scopolamine-induced AChE level in brain at 2.5 to 10 mg/kg, po administered once daily for 7 days followed by scopolamine challenge using acetylthiocholine iodide as substrate by Ellman's method; assay type: functional, organism-based
Mus musculus [14] = test: In vivo antioxidant activity in albino mouse assessed as increase in scopolamine-induced catalase activity by measuring decrease in H2O2 level in brain at 2.5 to 10 mg/kg, po administered once daily for 7 days followed by scopolamine challenge; assay type: functional, organism-based
Acetylcholinesterase [15] = target: T1, Acetylcholinesterase; test: (§1) Competitive inhibition of human erythrocyte AChE at 10 nM to 10 uM using acetylthiocholine iodide as substrate preincubated for 10 mins followed by substrate addition and measured up to 6 mins by Lineweaver-Burk plot analysis
Acetylcholinesterase [16] = target: T1, Acetylcholinesterase; test: as §1, with “AChE assessed as enzyme-inhibitor complex formation by measuring intersection points on both axes of 1/Vmax and 1/[S]” for “AChE”
[17] = Acute toxicity in Swiss albino mouse assessed as effect on sleep by OECD 423 guideline based method; settings: in vivo
Acetylcholinesterase [18] = target: T1, Acetylcholinesterase; test: Competitive inhibition of human erythrocyte AChE assessed as […] in Km at 10 nM to 10 uM using acetylthiocholine iodide as substrate preincubated for 10 mins followed by substrate addition and measured up to 6 mins by Lineweaver-Burk plot analysis
Mus musculus [19] = test: Cognitive enhancing effect in albino mouse assessed as reversal of scopolamine-induced reduction in spontaneous alteration score at 2.5 to 10 mg/kg, po administered once daily for 7 days followed by scopolamine challenge for 5 mins prior to test and measured on day 7 by Y-maze test; assay type: functional, organism-based
[20] = Acute toxicity in Swiss albino mouse assessed as diarrhea by OECD 423 guideline based method; settings: in vivo
[21] = Acute toxicity in Swiss albino mouse assessed as effect on feeding behavior by OECD 423 guideline based method; settings: in vivo
Mus musculus [22] = test: Reversal of scopolamine-induced amnesic effect in albino mouse assessed as increase in transfer latency time of retention trial at 2.5 to 10 mg/kg, po administered once daily for 7 days followed by scopolamine challenge and subsequent training session for 5 mins by passive avoidance test; assay type: functional, organism-based
Acetylcholinesterase [23] = target: T1, Acetylcholinesterase; test: Inhibition of human erythrocyte AChE-induced amyloid beta (1 to 42) (unknown origin) aggregation incubated for 48 hrs by fluorescence based thioflavin T assay
[24] = Acute toxicity in Swiss albino mouse assessed as salivation by OECD 423 guideline based method; settings: in vivo
Acetylcholinesterase [25] = target: T1, Acetylcholinesterase; test: Competitive inhibition of human erythrocyte AChE assessed as effect on substrate V max at 10 nM to 10 uM using acetylthiocholine iodide as substrate preincubated for 10 mins followed by substrate addition and measured up to 6 mins by Lineweaver-Burk plot analysis
[26] = Acute toxicity in Swiss albino mouse assessed as induction of tremors by OECD 423 guideline based method; settings: in vivo
Acetylcholinesterase [27] = target: T1, Acetylcholinesterase; test: Competitive inhibition of human erythrocyte AChE assessed as enzyme-inhibitor complex formation by measuring 1/s at 10 nM to 10 uM using acetylthiocholine iodide as substrate preincubated for 10 mins followed by substrate addition and measured up to 6 mins by Lineweaver-Burk plot analysis

Cholinesterase, sequence (P06276 whole entry): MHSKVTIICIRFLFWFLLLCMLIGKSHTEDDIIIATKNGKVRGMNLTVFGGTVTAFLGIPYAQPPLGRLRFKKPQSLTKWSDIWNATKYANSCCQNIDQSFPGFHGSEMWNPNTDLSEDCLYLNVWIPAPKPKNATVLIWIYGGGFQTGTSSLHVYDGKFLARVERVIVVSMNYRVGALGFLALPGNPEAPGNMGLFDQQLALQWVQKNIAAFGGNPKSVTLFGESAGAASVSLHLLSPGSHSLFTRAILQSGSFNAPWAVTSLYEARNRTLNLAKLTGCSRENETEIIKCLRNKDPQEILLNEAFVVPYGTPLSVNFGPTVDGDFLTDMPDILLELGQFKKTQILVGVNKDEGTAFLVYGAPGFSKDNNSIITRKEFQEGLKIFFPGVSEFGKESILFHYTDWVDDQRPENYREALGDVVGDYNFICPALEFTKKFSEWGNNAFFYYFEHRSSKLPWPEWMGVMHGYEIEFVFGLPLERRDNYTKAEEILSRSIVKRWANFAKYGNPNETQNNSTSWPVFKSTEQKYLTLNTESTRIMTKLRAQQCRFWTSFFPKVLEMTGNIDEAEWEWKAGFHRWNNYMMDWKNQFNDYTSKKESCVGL
T1 sequence (P22303 whole entry): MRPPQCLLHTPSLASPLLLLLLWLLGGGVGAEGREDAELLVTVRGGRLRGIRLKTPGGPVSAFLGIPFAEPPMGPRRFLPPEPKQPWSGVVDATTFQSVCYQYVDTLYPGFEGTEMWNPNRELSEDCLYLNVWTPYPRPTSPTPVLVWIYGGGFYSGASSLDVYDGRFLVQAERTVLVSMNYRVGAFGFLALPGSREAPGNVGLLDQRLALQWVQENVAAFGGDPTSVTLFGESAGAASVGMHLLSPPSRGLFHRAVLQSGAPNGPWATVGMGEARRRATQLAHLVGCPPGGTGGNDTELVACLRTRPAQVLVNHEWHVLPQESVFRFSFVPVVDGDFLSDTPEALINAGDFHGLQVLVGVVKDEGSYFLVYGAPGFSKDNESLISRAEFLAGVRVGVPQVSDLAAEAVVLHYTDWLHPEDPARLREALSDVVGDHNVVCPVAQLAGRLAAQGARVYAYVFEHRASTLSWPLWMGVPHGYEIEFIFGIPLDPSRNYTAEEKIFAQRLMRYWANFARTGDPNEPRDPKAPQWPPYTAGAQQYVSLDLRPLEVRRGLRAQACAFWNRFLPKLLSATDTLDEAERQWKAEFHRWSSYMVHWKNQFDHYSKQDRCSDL

With `Nc1cccc(Cl)c1Oc1ccc(CNc2ccccc2)cc1` the logD [1] was 3.54, the IC50 (Cholinesterase) was > 10 µM and the IC50 (Acetylcholinesterase [2]) was > 10 µM. For the same compound, the Papp at 18 h, 25 ug/ml [3] was 6.26 ×10⁻⁶ cm/s.
In the case of `CN(C)CCCN1c2ccccc2Sc2ccc(Cl)cc21` [CHLORPROMAZINE], the Papp at 18 h, 25 ug/ml [3] is reported as 5.8 to 6.5 ×10⁻⁶ cm/s.
In the case of `Nc1cccc(Cl)c1Oc1ccc(CNc2cccc(O)c2)cc1`, the logD [1] is reported as 3.01, the IC50 (Cholinesterase) is reported as 9.45 µM and the IC50 (Acetylcholinesterase [2]) is reported as 7.23 µM. The Papp at 18 h, 25 ug/ml [3] was 5.55 ×10⁻⁶ cm/s.
`NCCc1ccc(O)c(O)c1` [DOPAMINE] gave a Papp at 18 h, 25 ug/ml [3] of 0.18 to 0.2 ×10⁻⁶ cm/s.
Compound `COc1cccc(NCc2ccc(Oc3c(N)cccc3Cl)cc2)c1` has a logD [1] of 3.98, an IC50 (Cholinesterase) of 8.25 µM and an IC50 (Acetylcholinesterase [2]) of 5.65 µM. The Papp at 18 h, 25 ug/ml [3] was 4.65 ×10⁻⁶ cm/s.
With `Nc1cccc(Cl)c1Oc1ccc(CNc2cccc(Br)c2)cc1` the logD [1] was 4.05, the IC50 (Cholinesterase) was > 10 µM and the IC50 (Acetylcholinesterase [2]) was > 10 µM. It also gave a Papp at 18 h, 25 ug/ml [3] of 3.56 ×10⁻⁶ cm/s.
Compound `Nc1cccc(Cl)c1Oc1ccc(CNc2ccc(O)cc2)cc1` has a logD [1] of 3.15, an IC50 (Cholinesterase) of 9.36 µM and an IC50 (Acetylcholinesterase [2]) of 8.81 µM. It also gave a Papp at 18 h, 25 ug/ml [3] of 6.87 ×10⁻⁶ cm/s.
In the case of `Nc1cccc(Cl)c1Oc1ccc(CNc2cc(Br)cc(Br)c2)cc1`, the logD [1] is reported as 4.52, the IC50 (Cholinesterase) is reported as > 10 µM and the IC50 (Acetylcholinesterase [2]) is reported as > 10 µM. For the same compound, the Papp at 18 h, 25 ug/ml [3] was 1.45 ×10⁻⁶ cm/s.
With `Nc1cccc(Cl)c1Oc1ccc(CNc2ccc(Cl)cc2)cc1` the logD [1] was 4.65, the IC50 (Cholinesterase) was > 10 µM and the IC50 (Acetylcholinesterase [2]) was > 10 µM. It also gave a Papp at 18 h, 25 ug/ml [3] of 3.42 ×10⁻⁶ cm/s.
Compound `COc1ccc(NCc2ccc(Oc3c(N)cccc3Cl)cc2)cc1` has a logD [1] of 3.33, an IC50 (Cholinesterase) of 9.97 µM and an IC50 (Acetylcholinesterase [2]) of 5.24 µM. The Papp at 18 h, 25 ug/ml [3] was 5.68 ×10⁻⁶ cm/s.
For `COc1cc2c(cc1OC)C(=O)C(CC1CCN(Cc3ccccc3)CC1)C2` (configuration not stated), the Activity (Mus musculus [4]) was “Active”, the Activity (Mus musculus [5]) was “Active” and the Activity (Mus musculus [6]) was “Active”.
In the case of `Nc1cccc(Cl)c1Oc1ccc(CNc2cccc(Cl)c2)cc1`, the logD [1] is reported as 3.98, the IC50 (Cholinesterase) is reported as > 10 µM and the IC50 (Acetylcholinesterase [2]) is reported as > 10 µM. The Papp at 18 h, 25 ug/ml [3] was 5.65 ×10⁻⁶ cm/s.
With `COc1cc(NCc2ccc(Oc3c(N)cccc3Cl)cc2)cc(OC)c1OC` the Activity (Mus musculus [7]) was “Active”, the Activity (Mus musculus [8]) was “Active” and the logD [1] was 3.78. For the same compound, the Activity [9] was “Non-Toxic”, the Activity (Mus musculus [10]) was “Non-Toxic” and the Activity (Mus musculus [11]) was “Active”. The IC50 (Cholinesterase) was 8.41 µM, the Activity [12] was “Non-Toxic” and the Activity (Mus musculus [13]) was “Dose-dependent effect”. For the same compound, the Activity (Mus musculus [14]) was “Active”, the Ki (Acetylcholinesterase [15]) was 0.879 µM and the Ratio (Acetylcholinesterase [16]) was > 0. The IC50 (Acetylcholinesterase [2]) was 1.32 µM, the Activity [17] was “Non-Toxic” and the inhibition (Acetylcholinesterase [18]) was “Active”. For the same compound, the Activity (Mus musculus [19]) was “Active”, the Activity [20] was “Non-Toxic” and the Activity [21] was “Non-Toxic”. The Activity (Mus musculus [22]) was “Dose-dependent effect”, the Activity (Mus musculus [6]) was “Active” and the Papp at 18 h, 25 ug/ml [3] was 6.35 ×10⁻⁶ cm/s. For the same compound, the inhibition (Acetylcholinesterase [23]) was “Dose-dependent effect”, the Activity [24] was “Non-Toxic” and the inhibition (Acetylcholinesterase [25]) was “Active”. The Activity [26] was “Non-Toxic” and the fold change (FC) (Acetylcholinesterase [27]) was > 0.
Work on `CC(=O)[C@H]1CC[C@H]2[C@@H]3CCC4=CC(=O)CC[C@]4(C)[C@H]3CC[C@]12C` [PROGESTERONE] yielded a Papp at 18 h, 25 ug/ml [3] of 9.3 to 13.8 ×10⁻⁶ cm/s.
Compound `Cc1nnc2n1-c1ccc(Cl)cc1C(c1ccccc1)=NC2` [ALPRAZOLAM] has a Papp at 18 h, 25 ug/ml [3] of 4.2 to 5.4 ×10⁻⁶ cm/s.
`CCn1cc(C(=O)O)c(=O)c2cc(F)c(N3CCNC(C)C3)c(F)c21` (configuration not stated) [LOMEFLOXACIN] showed a Papp at 18 h, 25 ug/ml [3] of 0.31 to 1.1 ×10⁻⁶ cm/s.
In the case of `Nc1cccc(Cl)c1Oc1ccc(CNc2cc(Cl)cc(Cl)c2)cc1`, the logD [1] is reported as 4.39, the IC50 (Cholinesterase) is reported as > 10 µM and the IC50 (Acetylcholinesterase [2]) is reported as > 10 µM. The Papp at 18 h, 25 ug/ml [3] was 1.56 ×10⁻⁶ cm/s.
With `COc1cc(NCc2ccc(Oc3c(N)cccc3Cl)cc2)cc(OC)c1` the logD [1] was 3.56, the IC50 (Cholinesterase) was 6.42 µM and the IC50 (Acetylcholinesterase [2]) was 2.88 µM. For the same compound, the Papp at 18 h, 25 ug/ml [3] was 4.54 ×10⁻⁶ cm/s.
For `Nc1cccc(Cl)c1Oc1ccc(CNc2ccc(Br)cc2)cc1`, the logD [1] was 4.52, the IC50 (Cholinesterase) was > 10 µM and the IC50 (Acetylcholinesterase [2]) was > 10 µM. For the same compound, the Papp at 18 h, 25 ug/ml [3] was 3.48 ×10⁻⁶ cm/s.
